In article PMC7155171, “Probing the Open Global Health Chemical Diversity Library for Multistage-Active Starting Points for Next-Generation Antimalarials” (ACS Infectious Diseases, 2020):
Like-named read-outs stand apart in the source and are kept apart here.

Legend:
[1] = tested on: P. berghei liver stage (PbLuc); test: P. berghei luciferase liver stage (PbLuc) assay in HepG2-A16-CD81 hepatocytes; format: cell-based, Plasmodium berghei; details: Plasmodium berghei; for Emax: 12pt dose response, maximum inhibition
[2] = biological target: recombinant firefly luciferase (Photinus pyralis, UniProt P08659); test: biochemical; details: for Emax: maximum inhibition, read-out: rLuc inhibition dose response: Maximum inhibition (%)
Sequence of recombinant firefly luciferase (P08659 whole entry): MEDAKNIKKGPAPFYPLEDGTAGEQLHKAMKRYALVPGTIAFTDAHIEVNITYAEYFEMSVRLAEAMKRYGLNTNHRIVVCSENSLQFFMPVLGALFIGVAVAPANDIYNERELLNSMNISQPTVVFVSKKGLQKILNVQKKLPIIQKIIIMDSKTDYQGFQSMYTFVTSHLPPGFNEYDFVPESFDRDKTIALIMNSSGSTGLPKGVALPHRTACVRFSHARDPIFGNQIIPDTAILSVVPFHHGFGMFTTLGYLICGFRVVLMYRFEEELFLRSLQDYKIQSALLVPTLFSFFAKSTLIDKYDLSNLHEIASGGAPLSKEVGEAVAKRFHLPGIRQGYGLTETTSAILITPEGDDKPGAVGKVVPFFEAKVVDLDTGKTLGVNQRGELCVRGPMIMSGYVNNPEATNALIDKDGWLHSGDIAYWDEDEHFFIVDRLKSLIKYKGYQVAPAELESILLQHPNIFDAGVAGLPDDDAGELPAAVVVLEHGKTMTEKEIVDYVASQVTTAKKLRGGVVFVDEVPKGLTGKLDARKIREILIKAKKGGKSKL

[3] = HepG2 cytotoxicity screening (CellTiter-Glo); details: human, uninfected HepG2-A16-CD81 (EGFP) hepatocytes
[4] = tested on: HepG2-A16-CD81 hepatocytes; test: HepG2 cytotoxicity screening (CellTiter-Glo); details: for HepG2 cytotoxicity 12pt dose response: Maximum inhibition (%): 12pt dose response; for IC50: HepG2-A16-CD81, read-out: HepG2 tox IC50
[5] = tested on: P. falciparum Dd2 (PfLuc) line expressing firefly luciferase, asexual blood stage; test: microbe, parasite or virus in culture; format: cell-based, Plasmodium falciparum; details: Plasmodium falciparum
P. falciparum Dd2 = test: SYBR green I asexual blood stage proliferation assay (96 h); format: cell-based, Plasmodium falciparum; details: Plasmodium falciparum, DD2, Sybr Green I, 11-pt dose response, 96hr; for IC50: read-out: CDD P. falciparum Sybr Green I ABS 11-pt Reconfirmation Dose Response (96hr): IC50; for Emax: read-out: CDD P. falciparum Sybr Green I ABS 11-pt Reconfirmation Dose Response (96hr): Maximum inhibition (%)
[6] = HepG2-A16-CD81, 12pt dose response, read-out: PbLuc 12pt dose response: IC50
[7] = dose response, read-out: rLuc inhibition dose response: IC50
[8] = HepG2-A16-CD81, 48 h, 48 h liver stage, HepG2-A16-CD81, read-out: Pbluc (EEF) IC50
[9] = DD2, read-out: CDD P. falciparum Luciferase ABS 11-pt Reconfirmation Dose Response (48hr): IC50 (μM), 11-pt dose response, 48hr
[10] = DD2, 8-pt dose response, 96hr, read-out: CDD P. falciparum Luciferase ABS 8-pt Reconfirmation Dose Response (96hr): IC50
[11] = DD2, 8-pt dose response, 96hr, read-out: CDD P. falciparum Luciferase ABS 8-pt Reconfirmation Dose Response (96hr): Maximum inhibition (%)
[12] = DD2, 11-pt dose response, 48hr, read-out: CDD P. falciparum Luciferase ABS 11-pt Reconfirmation Dose Response (48hr): Maximum inhibition (%)
[13] = DD2, 11-pt dose response, 96hr, read-out: CDD P. falciparum Luciferase ABS 11-pt Reconfirmation Dose Response (96hr): IC50
[14] = DD2, 11-pt dose response, 96hr, read-out: CDD P. falciparum Luciferase ABS 11-pt Reconfirmation Dose Response (96hr): Maximum inhibition (%)

Compound	IC50 [1, 6]	Emax ([1]; HepG2-A16-CD81, 48 h)	Emax ([2]; dose response)	IC50 [2, 7]	IC50 [3]	HepG2 cytotoxicity 12pt dose response: Maximum inhibition (%) [4]	IC50 [1, 8]	IC50 ([2]; read-out: rLuc IC50)	IC50 [4]	further results
CC(=O)c1ccc(N2CCC(CO)(CCOc3ccccc3)CC2)nc1 [UCSD-0839049]	14.6 µM	105%	13.2%	> 25 µM	> 25 µM	60.3%				HepG2 Cytotoxicity primary screen (2uM): % Inhibition [4]: 17.47%
CC(C(=O)Nc1sccc1C(N)=O)N(C)CCOc1ccccc1 (stereo not shown) [UCSD-0809872]	0.787 µM	95.7%	17.7%	> 50 µM	> 25 µM	7.13%				inhibition at 2 µM [3]: 5.59%
O=S(=O)(c1ccc(Cl)s1)N1CCN(Cc2nc(-c3ccco3)cs2)CC1 [UCSD-0787251]	11 µM	93.6%	13.6%	> 25 µM	22 µM	65.6%				HepG2 Cytotoxicity primary screen (2uM): % Inhibition [4]: 12.14%
CCN1CC(CN(C)c2cc(C)nc(N)n2)Oc2ccccc21 (stereo not shown) [UCSD-0806866]	5.15 µM	93.5%	15.4%	> 25 µM	20.6 µM	73.7%				inhibition at 2 µM [3]: -3.08%
O=C(NCCCN1CCCCC1)c1ccc(-n2ccc3ccccc32)s1 [UCSD-0795001]	11.6 µM	116%	-4.22%	> 25 µM	22.1 µM	66.1%				HepG2 Cytotoxicity primary screen (2uM): % Inhibition [4]: 0.00%
COc1ccc(-c2ccc(C3CNCCO3)nc2)cc1 (stereo not shown) [DDD01061023]							< 0.000141 µM	0.03 µM	> 50 µM	
Cc1noc(NC(=O)c2ccc(Br)s2)n1 [UCSD-0844983]	14.7 µM	88.4%	-1.54%	> 25 µM	> 25 µM	28.5%				HepG2 Cytotoxicity primary screen (2uM): % Inhibition [4]: 5.11%
COC(=O)CSCc1noc(-c2ccc(C)cc2)n1 [UCSD-0807935]	0.0335 µM	77.1%	62.8%	> 25 µM	> 25 µM	3.73%				inhibition at 2 µM [3]: -4.01%
COc1c(CNCc2ccc(C(=O)N(C)C(C)C)cc2)c(C)nn1C [UCSD-0723791]	2.49 µM	86.3%	-4.69%	> 25 µM	16.6 µM	53.2%				inhibition at 2 µM [3]: 0.82%
CCCc1cncnc1N1CCC(NCc2cc3ccccc3[nH]2)CC1 [UCSD-0834906]	1.84 µM	97.5%	31.4%	> 25 µM	> 25 µM	32.8%				inhibition at 2 µM [3]: 7.01%
COc1cccc(-c2noc3c2CN(c2ncnc4c2CCC4)CC3)c1 [UCSD-0837523]	5.79 µM	84.4%	15.5%	> 25 µM	8.51 µM	52%				inhibition at 2 µM [3]: -0.62%
CCc1c(C)nc(-n2nc(C3CC3)cc2NC(C)=O)[nH]c1=O [UCSD-0787229]	0.0826 µM	97.2%	16.1%	> 50 µM	> 25 µM	3.74%				
Cc1ccc(-c2ccc(C3CNCCO3)nc2)cc1 (stereo not shown) [UCSD-0802459]	< 0.000141 µM	98.6%	88.3%	0.00428 µM	> 50 µM	48.6%				inhibition at 2 µM [3]: 25.3%
Cc1ccc(Nc2nccc(C3CCN(CC(N)=O)C3)n2)nc1 (stereo not shown) [UCSD-0800962]	0.00289 µM		81.5%	0.0401 µM	> 25 µM	15.1%				
Cc1cc(CN2CCN(C(c3ccccc3)c3ccccc3)CC2)no1 [UCSD-0846071]	8.97 µM	104%	14.1%	> 25 µM	> 25 µM	4.68%				inhibition at 2 µM [3]: 0.21%
Cc1[nH]/c(=N\C(=O)c2csc(NC3CCCC3)n2)sc1C [DDD01035522]							0.832 µM	44.4 µM	11 µM	
CCc1cc(=O)[nH]c(-n2nc(C3CC3)cc2NC(=O)C2CC2)n1 [UCSD-0787226]	0.35 µM	92.4%	8.54%	> 25 µM	> 25 µM	54%				inhibition at 2 µM [3]: -1.99%
Cc1cc(C(=O)N2CCN(c3nc4c(C(C)C)cccc4s3)CC2)no1 [UCSD-0787009]	0.822 µM	98.9%	34.2%	> 50 µM	> 25 µM	1.29%				
COc1ccc2cc(C3CN(C(=O)N(C)C)CCO3)ccc2c1 (stereo not shown) [DDD01257372]							< 0.000141 µM	3.45 µM	> 25 µM	

Compound	IC50 [1, 6]	Emax ([1]; HepG2-A16-CD81, 48 h)	Emax ([2]; dose response)	IC50 [2, 7]	IC50 [3]	HepG2 cytotoxicity 12pt dose response: Maximum inhibition (%) [4]	IC50 [1, 8]	IC50 ([2]; read-out: rLuc IC50)	IC50 [4]	further results
Cc1cc(C(=O)N2CCN(c3nc4c(C(C)C)cccc4s3)CC2)on1 [DDD01027654]							4 µM	> 50 µM	> 25 µM	
Cc1cc(C(=O)N2CCN(c3nc4c(C(C)C)cccc4s3)CC2)no1 [DDD01027513]							0.822 µM	> 50 µM	> 25 µM	
COc1cc(C)c(CN2CCc3nc4ccsc4c(=O)n3CC2)cc1C [DDD01059934]							8.88 µM	> 25 µM	> 25 µM	
Fc1ccc(CN2CCCC(c3cc4ncccc4[nH]3)C2)cc1 (stereo not shown) [DDD01057419]							8.45 µM	> 25 µM	> 25 µM	
CCS(=O)(=O)N1CCc2ccc(NC(=O)Nc3cccc(C)c3)cc21 [DDD01025922]							3.66 µM	> 50 µM	16.6 µM	
CCOc1ccc(CN2CCCC(c3cc4ncccc4[nH]3)C2)cc1 (stereo not shown) [DDD01057418]							5.76 µM	> 25 µM	> 25 µM	IC50 [5, 9]: 1.07 µM; IC50 [5, 10]: 0.96 µM; Emax [5, 11]: 95.5%; Emax [5, 12]: 96.8%; IC50 [5, 13]: 0.872 µM; Emax [5, 14]: 100%; IC50 (P. falciparum Dd2): 0.934 µM; Emax (P. falciparum Dd2): 95.7%
CCS(=O)(=O)N1CCc2ccc(NC(=O)Nc3cccc(SC)c3)cc21 [DDD01035781]							1.38 µM	> 25 µM	3.39 µM	
CC(C)c1cc(=O)[nH]c(-n2nc(C3CC3)cc2N)n1 [DDD01027469]							1.61 µM	> 25 µM	18.9 µM	
Cc1cnc(NC(=O)c2csc(NC3CCCC3)n2)s1 [DDD01026924]							8.33 µM	24.8 µM	> 25 µM	
CCc1nc(CN2CCCN(c3ncnc4ccccc34)CC2)no1 [DDD01080636]							0.691 µM	> 50 µM	1.85 µM	
COc1ccc2cc(C3CN(C(=O)CCNC(C)=O)CCO3)ccc2c1 (stereo not shown) [DDD01248593]							0.333 µM	9.9 µM	> 25 µM	
Clc1ccc(-c2ccc(C3CNCCO3)nc2)cc1 (stereo not shown) [DDD01060778]							< 0.000141 µM	0.06 µM	> 25 µM	IC50 [5, 9]: 1.38 µM; IC50 [5, 10]: 0.46 µM; Emax [5, 11]: 93%; Emax [5, 12]: 97.5%; IC50 [5, 13]: 1.36 µM; Emax [5, 14]: 99.3%; IC50 (P. falciparum Dd2): > 12.5 µM; Emax (P. falciparum Dd2): 56.1%
CNC(=O)CCC(=O)N1CCOC(c2ccc3cc(OC)ccc3c2)C1 (stereo not shown) [DDD01251007]							0.000954 µM	23.5 µM	> 25 µM	
CCCc1cc(=O)[nH]c(-n2nc(C3CC3)cc2N)n1 [DDD01027468]							4.69 µM	> 25 µM	20.5 µM	
O=c1c2sccc2nc2n1CCN(Cc1ccccc1C(F)(F)F)CC2 [DDD01059968]							6.77 µM	> 25 µM	> 25 µM	
O=C(O)CSc1nnc(-c2cn[nH]c2)n1-c1ccccc1C(F)(F)F [UCSD-0830442]	5.54 µM				> 50 µM	4.76%				inhibition at 2 µM [3]: 6.23%
CC(=O)Nc1nc(C(=O)N2CCCC(n3cncn3)C2)cs1 (stereo not shown) [UCSD-0843277]	21.5 µM	81.2%			> 50 µM	-5.65%				inhibition at 2 µM [3]: -7.07%
CCS(=O)(=O)N1CCc2ccc(NC(=O)Nc3cccc(F)c3)cc21 [DDD01025926]							9.31 µM	> 25 µM	17.8 µM	
